For assay [1], the system named is Mycobacterium tuberculosis. As to the kind of experiment: Antimycobacterial activity against drug-resistant Mycobacterium tuberculosis clinical isolate. The assay is classed as functional.
The subject of assay [2] is Mycobacterium tuberculosis. Description: Antimycobacterial activity against rifampin and isoniazid-resistant Mycobacterium tuberculosis. The assay is classed as functional.

Values after ≈ are worked out from the molar mass of the structure shown.

As for `COC(=O)c1cc2c(OCc3ccccc3)cc(N)cc2[nH]1`, the MIC in assay [1] and in assay [2] was 54 µM (≈ 16 µg/mL) throughout.

Source of the values: ChEMBL document CHEMBL1795340, “A discovery of novel Mycobacterium tuberculosis pantothenate synthetase inhibitors based on the molecular mechanism of actinomycin D inhibition” (Bioorg Med Chem Lett, 2011).
